# Assays:
# [1] = test system: animal model having bone marrow suppression induced by docetaxel; test: Alleviation of bone marrow suppression in animal model having bone marrow suppression induced by docetaxel; type: in vivo, C57BL/6 mice
# Procedure: After that, a change brought by the Phragmitis Rhizoma extract was determined.
# Specifically, C57BL/6 mice were categorized into 4 groups. Group 1 is a control, i.e., a group treated with saline containing 5% ethanol and 2% polysorbate 80. Group 2 is a docetaxel treatment group, i.e., a group with intraperitoneal injection (3 times) of 30 mg/kg docetaxel. Group 3 is a docetaxel and 125 mg/kg Phragmitis Rhizoma extract administration group, i.e., a group to which compulsory administration of 125 mg/kg Phragmitis Rhizoma extract was carried out, once a day starting from 2 days before the administration of docetaxel, and the compulsory administration of 125 mg/kg Phragmitis Rhizoma extract (once a day) was continued even for the 3 days of administering docetaxel. Lastly, Group 4 is a docetaxel and 250 mg/kg Phragmitis Rhizoma extract administration group, i.e., a group to which administration of 250 mg/kg Phragmitis Rhizoma extract was carried out, in the same manner as above Group 3, once a day starting from 2 days before the administration of docetaxel, and the compulsory administration of 250 mg/kg Phragmitis Rhizoma extract (once a day) was continued even for the 3 days of administering docetaxel.
# After that, a change in body weight of the mouse belonging to each of the control group, docetaxel administration group, combined administration group with docetaxel and 125 mg/kg Phragmitis Rhizoma extract, and combined administration group with docetaxel and 250 mg/kg Phragmitis Rhizoma extract was measured every day. On Day 6, the mouse was sacrificed and the weight of the spleen and thymus, which play an important role in determining cell number change in bone marrow and hematopoiesis, was measured.
# Organ index (mg/g)=Weight of organ (mg)/Weight of animal (g)
# [2] = test system: animal model having docetaxel-induced bone marrow suppression; test: Blood cell numbers in animal model having docetaxel-induced bone marrow suppression; type: in vivo, C57BL/6 mice
# Procedure: In order to determine the influence of Phragmitis Rhizoma extract on blood parameters of an animal model having bone marrow suppression, bone marrow suppression was induced by intraperitoneal injection of docetaxel to a mouse. After that, a change brought by the Phragmitis Rhizoma extract was determined.
# Specifically, C57BL/6 mice were categorized into 5 groups. Group 1 is a control, i.e., a group treated with saline containing 5% ethanol and 2% polysorbate 80. Group 2 is a docetaxel treatment group, i.e., a group with intraperitoneal injection (3 times) of 30 mg/kg docetaxel. Group 3 is a docetaxel and 30 mg/kg Phragmitis Rhizoma extract administration group, i.e., a group to which compulsory administration of 30 mg/kg Phragmitis Rhizoma extract was carried out, once a day starting from 2 days before the administration of docetaxel, and the compulsory administration of 30 mg/kg Phragmitis Rhizoma extract (once a day) was continued even for the 3 days of administering docetaxel. Group 4 is a docetaxel and 100 mg/kg Phragmitis Rhizoma extract administration group, i.e., a group to which administration was carried out in the same manner as above Group 3. Lastly, Group 5 is a docetaxel and 300 mg/kg Phragmitis Rhizoma extract administration group, i.e., a group to which administration was carried out in the same manner as Group 3.
# Blood was taken from the animal and a change in the number of blood cells was determined.
# [3] = test system: bone marrow cells from mouse femur; test: Hematopoietic toxicity in mouse having intraperitoneal injection of anticancer agent (in vivo), bone marrow cell count; parameters: species or system C57BL/6 mouse; settings: docetaxel i.p. 50, 100, or 150 mg/kg; three days and seven days after injection; FIG. 2
# Procedure: A C57BL/6 mouse was subjected to intraperitoneal injection of docetaxel at 50, 100, or 150 mg/kg. Three days and seven days after the injection, bone marrow cells were isolated from the mouse femur and counted, and the survival rate was measured.
# [4] = docetaxel 30 mg/kg i.p. 3 times, alone, Day 6
# [5] = docetaxel 30 mg/kg i.p. 3 times, alone, mean ± SEM, ten mice
smiles,measurement,setting,value
CC(=O)O[C@@]12CO[C@@H]1C[C@H](O)[C@@]1(C)C(=O)[C@H](O)C3=C(C)[C@@H](OC(=O)[C@H](O)[C@@H](NC(=O)OC(C)(C)C)c4ccccc4)C[C@@](O)([C@@H](OC(=O)c4ccccc4)[C@H]21)C3(C)C [docetaxel],number of bone marrow cells (bone marrow mononuclear cells),"[1]; docetaxel 30 mg/kg i.p. 3 times, alone, vs control, FIG. 5",decreased significantly
same,Spleen index,[1]; [4],2.366 ± 0.22 mg/g
same,Thymus index,[1]; [4],0.911 ± 0.22 mg/g
same,body weight,"[1]; docetaxel 30 mg/kg i.p. 3 times, alone, FIG. 4",a significant decrease in body weight was induced
same,histopathological analysis of thymus,"[1]; docetaxel administration, FIG. 7",organ shrinkage and loss of functional lymphoid organ
same,organ index of spleen and thymus (in words),[1]; docetaxel alone,a decrease in organ index
same,"expression of IL-3 (mRNA, spleen tissue)","[1]; docetaxel alone, FIG. 8",largely decreased
same,histological analysis of femur (H&E),"[1]; docetaxel only, FIG. 6",a hypocellularity and an abnormality in cellular structure in bone marrow
same,Lymphocytes,[2]; [5],1.56 ± 0.22
same,Neutrophils,[2]; [5],0.30 ± 0.01
same,RBCs,[2]; [5],7.72 ± 0.15
same,WBCs,[2]; [5],2.09 ± 0.19
same,number of blood cells (in words),[2]; docetaxel administration group,"a decrease in the number of the white blood cells, neutrophils, lymphocytes, and red blood cells"
same,number of isolated bone marrow cells,[3],a decrease in the number of the isolated bone marrow cells was observed in significant sense

# — patent publication US20210205398A1, “COMPOSITIONS CONTAINING PHRAGMITIS RHIZOMA EXTRACT AS ACTIVE INGREDIENT FOR PREVENTION, AMELIORATION, OR TREATMENT OF A DISORDER CAUSED BY SIDE EFFECT OF ANTICANCER AGENT” (KOREA INSTITUTE OF ORIENTAL MEDICINE, priority 2016, published 2021)
